Results on seven molecules are retold here after ChEMBL document CHEMBL3228002, “Sulfonated catecholamide analogues of enterobactin as iron sequestering agents” (J Med Chem, 1979).

Each structure is given as a SMILES string.

The nature of the assay: Iron sequestering activity of the compound assessed as [Fe(H2O)6]3+ formation at 10^-5 M at pH 7.4 by spectrophotometrically in presence of 10^-6 M total iron concentration.

As to `O=C(NCc1cc(S(=O)(=O)O)cc(O)c1O)c1cc(C(=O)NCc2cc(S(=O)(=O)O)cc(O)c2O)cc(C(=O)NCc2cc(S(=O)(=O)O)cc(O)c2O)c1`, the pM was 25.1. Under `O=C(NCc1cc(CNC(=O)c2cccc(O)c2O)cc(CNC(=O)c2cccc(O)c2O)c1)c1cccc(O)c1O` stands 29.1. Under `CN(C)C(=O)c1cc(S(=O)(=O)O)cc(O)c1O` stands 19.2; under `O=C(N[C@H]1COC(=O)[C@@H](NC(=O)c2cccc(O)c2O)COC(=O)[C@@H](NC(=O)c2cccc(O)c2O)COC1=O)c1cccc(O)c1O`, 35.5; under `O=C(NCc1cc(CNC(=O)c2cc(S(=O)(=O)O)cc(O)c2O)cc(CNC(=O)c2cc(S(=O)(=O)O)cc(O)c2O)c1)c1cc(S(=O)(=O)O)cc(O)c1O`, 29.4.

For the molecule `CC(=O)N(O)CCCCCNC(=O)CCC(=O)N(O)CCCCCNC(=O)CCC(=O)N(O)CCCCCN`, the pM came out at 26.6. Next, `O=C(NCCCCN(CCCNC(=O)c1cc(S(=O)(=O)O)cc(O)c1O)C(=O)c1cc(S(=O)(=O)O)cc(O)c1O)c1cc(S(=O)(=O)O)cc(O)c1O`: 28.5.
